PubChem BioAssay (NCI)
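How tested: cells in 96-well plates exposed to compound for 48 hours at five concentrations. Here, GI50 denotes the concentration required for 50% inhibition of growth. TGI: concentration producing complete growth inhibition.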 Where a SMILES comes first, the peptide text is derived from it. Bridges are numbered along the chain shown (N, C = ends). [ ]: non-standard residue; d: D form. ξ: configuration not given here. ξThr(3R) = C[C@@H](O)C(N)C(=O)O; S5 = C=CCCC[C@](C)(N)C(=O)O

Legend:
Test in all cases: NCI anticancer screen, dose series, 48 h
NCI-H460 lung = test system: NCI-H460 lung
OVCAR-8 ovarian = test system: OVCAR-8 ovarian
EKVX NSCLC = test system: EKVX NSCLC
SW-620 colon = test system: SW-620 colon
SK-MEL-2 melanoma = test system: SK-MEL-2 melanoma
K-562 leukemia = test system: K-562 leukemia
RPMI-8226 leukemia = test system: RPMI-8226 leukemia
KM12 colon = test system: KM12 colon
SNB-75 CNS = test system: SNB-75 CNS
SF-295 CNS = test system: SF-295 CNS

Structure (SMILES)	GI50 (NCI-H460 lung)	TGI (NCI-H460 lung)	GI50 (OVCAR-8 ovarian)	TGI (OVCAR-8 ovarian)	GI50 (EKVX NSCLC)	TGI (EKVX NSCLC)	GI50 (SW-620 colon)	TGI (SW-620 colon)	GI50 (SK-MEL-2 melanoma)	TGI (SK-MEL-2 melanoma)	GI50 (K-562 leukemia)	TGI (K-562 leukemia)	GI50 (RPMI-8226 leukemia)	TGI (RPMI-8226 leukemia)	GI50 (KM12 colon)	TGI (KM12 colon)	GI50 (SNB-75 CNS)	TGI (SNB-75 CNS)	GI50 (SF-295 CNS)	TGI (SF-295 CNS)
COc1cc(/C=C/C(=O)/C=C/c2cc3ccc(Cl)cc3n(Cc3ccccc3)c2=O)ccc1O	1.89 µM	4.27 µM	0.497 µM	11.7 µM	2.11 µM	4.67 µM	1.56 µM	4.33 µM	1.92 µM	4.97 µM	1.89 µM	> 100 µM	1.23 µM	10.9 µM	1.7 µM	3.59 µM	2.52 µM	7.42 µM	3 µM	10.8 µM
CCN(CC)CCC(CNc1ccnc2cc(Cl)ccc12)c1ccccc1 (stereo not given)	8.36 µM	29 µM	5.05 µM	20.5 µM	28.5 µM	> 100 µM	4.81 µM	22.2 µM	1.95 µM	4.06 µM	1.46 µM	5.61 µM	3.11 µM	13.5 µM	7.29 µM	75.1 µM	2.61 µM	9.82 µM	1.83 µM	4.79 µM
O=CNc1ccc(S(=O)(=O)c2ccc(NC=O)cc2)cc1		> 100 µM		> 100 µM		> 100 µM		> 100 µM		> 100 µM		> 100 µM		> 100 µM		> 100 µM		> 100 µM		> 100 µM
CC(=O)N[C@H](C(=O)N[C@@H](CCCNC(=N)N)C(=O)N[C@@H](CCCCN)C(=O)N[C@@H](CCCNC(=N)N)C(=O)NC(C(=O)N[C@@H](CC(C)C)C(=O)N[C@@H](CCCNC(=N)N)C(=O)N[C@@]1(C)CCC/C=C\CCC[C@@](C)(C(=O)N[C@@H](CCCNC(=N)N)C(=O)N[C@@H](CCC(=O)O)C(=O)N[C@@H](CC(C)C)C(=O)N[C@H](C(=O)N[C@@H](CCC(=O)O)C(N)=O)C(C)C)NC(=O)[C@H](CCC(N)=O)NC(=O)[C@H](CC(C)C)NC(=O)[C@H](CC(C)C)NC1=O)[C@@H](C)O)C(C)C (stereo partly drawn) (Ac-VRKR[ξThr(3R)]LR[S5]LLQ[S5]RELVE-NH2; staple (Z) 8-12)	1.76 µM	6.84 µM	2.14 µM	8.32 µM	6.03 µM	14.2 µM	8.29 µM	16.2 µM	4.73 µM	17.2 µM	9.12 µM	19.7 µM	8.77 µM	18.9 µM	1.99 µM	8.03 µM	3.8 µM	10.8 µM	4.69 µM	12.1 µM
COc1cc(/C=C/C(=O)N2CCC=CC2=O)cc(OC)c1OC	3.36 µM	10.6 µM	2.86 µM	8.17 µM	2.94 µM	14.2 µM	2.51 µM	6.61 µM	2.53 µM	7.09 µM	2.98 µM	> 100 µM	1.5 µM	4.81 µM	3.18 µM	12.8 µM	36.6 µM	> 100 µM	6.37 µM	21.1 µM
